Where “and” joins values, the source holds several entries; their conditions need not be identical. Equal entries are not always repeated. Structures can show the parent of a compound that is named as a salt. Calls of active or inactive are those of the source.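 The calls were made as follows: active = compounds giving half or more protection of infected cells from virus-caused growth loss, again on retest; inactive = the rest.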 Where a SMILES comes first, the peptide text is derived from it. The star is where a group is joined. Tfa = O=C(C(F)(F)F)*

Here are results for 72 molecules from PubChem BioAssay AID179 (DTP/NCI, 2004).

The assay deals with CEM cells HIV-1 protection, formazan growth assay. Description: NCI AIDS Antiviral Assay. Particulars: for IC50: measured here: growth of uninfected CEM cells. In outline:
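Protection of CEM cells against HIV-1 measured as cell growth via soluble formazan read-out, with five concentrations tested on both infected and uninfected cells; failure to protect may reflect toxicity.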

The EC50 is the concentration at which the effect is half-maximal. For orientation: IC50 means the concentration needed to halve the response being measured. A higher IC50 goes with lower potency. As for `O=[N+]([O-])c1ncc(N(CCO)CCO)s1`, the EC50 was over 200 µM and the IC50 stood at 85.1 µM.

Take `CCN1C[C@]2(COC)CCC(OC)C34[C@@H]5C[C@@H]6C(O)[C@@H]5[C@](O)(C[C@@H]6OC)[C@@H](C[C@@H]32)[C@H]14` (stereo not given in full): the result was inactive.

As for `C=CC(C)(C)C(=C)C(=O)N(C)c1ccccc1I`, the EC50 was over 200 µM and the IC50 was found to be 89.1 µM.

With `O=c1n(-c2ccccc2)c(=O)n2n1C1C3C4CCC1C4(Cl)C32` (stereo not given), the EC50 was over 40.7 µM and the concentration for half-maximal inhibition (IC50) was over 40.7 µM.

In the case of `COC(=O)C1ON2C(C1C(=O)OC)C(C)(C)N(O)C2(C)C` (stereo not given), the EC50 was over 200 µM and the IC50 is over 200 µM.

On to `CC12CCC(=O)C=C1CCC1C2CCC2(C)C1CCC2(O)C1(O)CCC2C3CCC4=CC(=O)CCC4(C)C3CCC21C` (stereo not given), for which the EC50 was over 100 µM and the IC50 amounted to 55 µM.

On to `CC12CC(C#N)(C#N)C(C#N)(CO1)C(=N)O2` (stereo not given), for which the EC50 was over 200 µM and the IC50 was found to be 42.7 µM.

Take `CCSC(CC(O)C(O)C(O)CO)SCC` (stereo not given): the EC50 was over 200 µM and the IC50 was over 200 µM.

Take `N#CC(C#N)=CSc1ccccc1`: the outcome was inactive.

Take `NC(=O)C12C(=O)NC(=O)C1(C(=O)O)C21CCCC1` (stereo not given): the EC50 is over 200 µM and the IC50 was over 200 µM.

For the molecule `CCOc1ccc(N=C(NC(=O)c2ccccc2)SC)cc1`, the EC50 is over 22.4 µM and the 50% inhibitory concentration (IC50) was over 22.4 µM.

With `O=c1oc2ccccc2c2nc3cc(Cl)ccc3cc12`, the EC50 was over 50.1 µM and the IC50 is over 50.1 µM.

Regarding `N#CCCN(CCCN(C(=O)N(c1ccccc1)c1ccccc1)c1ccccc1)C(=O)Nc1ccccc1`, the EC50 is over 200 µM and the IC50 stood at 10.5 µM.

As for `Cc1[nH]n(-c2nc3c(c(=O)[nH]2)CCCC3)c(=O)c1CCO`, the EC50 is over 200 µM and the 50% inhibitory concentration (IC50) came to 129 µM.

Regarding `Fc1ccccc1C1SCc2nc3ncccc3n21` (stereo not given), the EC50 was over 95.5 µM and the IC50 was over 95.5 µM.

In the case of `COC(=O)Cc1c([C@H]2[C@H](CC(=O)OC)c3ccccc3N2S(=O)(=O)c2ccc(C)cc2)[nH]c2ccccc12`, the EC50 is over 102 µM and the IC50 worked out at 11.5 µM.

As to `CC1(C)C2CCC1C(=O)C(C=O)C2` (stereo not given), the EC50 was over 200 µM and the concentration for half-maximal inhibition (IC50) was over 200 µM.

In the case of `Cc1cc2c(C(C)C)c(O)c(O)c(C=O)c2c(O)c1-c1c(C)cc2c(C(C)C)c(O)c(O)c(C=O)c2c1O`, the EC50 is over 200 µM, the outcome was inactive and the IC50 stood at 1.23 µM.

`C/C(=N\NC(=S)N1CCN(C2CCCCCC2)CC1)c1ccccn1`: the EC50 was over 138 µM and the concentration for half-maximal inhibition (IC50) was 0.955 µM.

With `COc1ccccc1NC(=O)C(=O)C(C(=O)c1ccccc1F)C1OC(=O)c2ccccc21` (stereo not given), the EC50 is over 288 µM and the concentration for half-maximal inhibition (IC50) was 20.9 µM.

With `C/C(=N\NS(=O)(=O)c1ccc(C)cc1)C(CN1CCCCC1)C(c1ccccc1)c1c(O)c2ccccc2oc1=O` (stereo not given), the EC50 is over 58.9 µM and the IC50 is 49 µM.

For the molecule `COc1ccccc1N=NC(C(=O)c1ccccc1)C(=O)c1ccccc1`, the EC50 is over 52.5 µM and the half-maximal inhibitory concentration (IC50) stood at 0.513 µM.

In the case of `CO[C@H]1Nc2c(ccc(C)c2O)C(=O)N2C=C(/C=C/C(N)=O)C[C@@H]12`, the EC50 is over 759 µM and the IC50 is 0.427 µM.

In the case of `CC(C)C(=O)[O-].CC(C)C(=O)[O-].N.N.N.N.[Co+3].[O-][Cl+3]([O-])([O-])[O-]`, the outcome was inactive.

As for `CC(NO)/C(=N/O)c1ccco1` (stereo not given), the EC50 is over 200 µM and the half-inhibitory concentration (IC50) is over 200 µM.

For `O=[P+](O)c1cccs1`, the outcome was inactive.

Turning to `C1CN2C(=N1)N1CCN=C1N1CCN=C21`, the EC50 is over 174 µM and the 50% inhibitory concentration (IC50) is over 174 µM.

For `O=c1n(Cc2ccccc2)c(=O)n2c(=O)n(Cc3ccccc3)c(=O)n12`, the EC50 was over 200 µM and the IC50 came to 148 µM.

`CC(C)=CCc1c(O)ccc2c1OC1c3ccc(O)c(CC=C(C)C)c3OCC21` (stereo not given): the outcome was inactive.

On to `COc1cc2ccccc2oc1=O`, for which the EC50 is over 40.7 µM and the IC50 is over 40.7 µM.

For the molecule `CC(c1ccccc1)n1cncc1C(=O)NN1CCN(C)CC1` (stereo not given), the EC50 is over 200 µM and the IC50 is over 200 µM.

For the molecule `CC(CO)CS(=O)(=O)O` (stereo not given), the EC50 is over 200 µM and the IC50 was over 200 µM.

Consider `C[N+](C)(C)Cc1c(CC#N)[nH]c2ccccc12`, for which the EC50 was over 123 µM and the IC50 worked out at 66.1 µM.

Regarding `N=C(CN1CCCCC1)N1CCCCC1`, the EC50 is over 200 µM and the IC50 is over 200 µM.

On to `COC1(CCO)CC=CCC1(CCO)OC` (stereo not given), for which the EC50 is over 200 µM and the half-inhibitory concentration (IC50) was over 200 µM.

For `S=C(S)N1CCCCC1`, the EC50 was over 200 µM.

In the case of `C=CCc1cc2c(C)cc(=O)oc2c(C)c1OC(C)=O`, the EC50 is over 19.1 µM and the IC50 was over 19.1 µM.

Consider `C=C1C(=O)OC2CC(C)C3CC(O)OC(OCC)C3(C)CC12` (stereo not given), for which the EC50 was over 83.2 µM and the 50% inhibitory concentration (IC50) stood at 15.5 µM.

For the molecule `[N-]=[N+]=Nc1cc(=O)n2c3c(cccc13)CCC2`, the result was inactive.

Consider `CC(C)(C)[Si](C)(C)OCC1OC(n2ccc(=O)[nH]c2=O)C(O[Si](C)(C)C(C)(C)C)[C@]12N[C@H](C(N)=O)CS2` (stereo not given in full), for which the EC50 is over 200 µM and the IC50 stood at 5.25 µM.

Take `Cc1occc1C(=S)Nc1ccc(Cl)c(/C=N/OC2CCCC2)c1`: the EC50 is 0.174 µM and the IC50 is 14.5 µM.

With `CC(NC(C#N)CC12CC3CC(CC(C3)C1)C2)c1ccccc1` (stereo not given), the EC50 is over 200 µM and the IC50 came to 41.7 µM.

Regarding `O=C(N/C(=C\c1ccccc1O)c1nc2ccccc2[nH]1)c1ccccc1`, the EC50 was over 51.3 µM and the IC50 is over 51.3 µM.

In the case of `Nc1ccc(Sc2c3ccccc3nc3ccccc23)cc1`, the EC50 is over 17.4 µM and the 50% inhibitory concentration (IC50) is 9.55 µM.

As for `Cc1nc2ccc(Br)cc2c(=O)n1-c1ccc(NC2OC(CO)C(O)C(O)C2O)cc1` (stereo not given), the EC50 is over 200 µM; the IC50 is > 200 µM and 195 µM.

Turning to `Cc1nc(N)sc1C(=O)Nc1ncn[nH]1`, the EC50 is over 200 µM and the concentration for half-maximal inhibition (IC50) stood at 117 µM.

With `Cc1cc(C)c(SSc2nnnn2C)c(C)c1`, the EC50 is over 200 µM and the IC50 is 19.5 µM.

On to `COc1ccc(O[C@H](COCc2ccccc2)C[C@@H]2COC(C)(C)O2)cc1`, for which the result was inactive.

Consider `O=Cc1ccc2c(c1)CC1(C2)Cc2ccc3c(c2C1)CCC3` (stereo not given), for which the EC50 is over 200 µM and the IC50 was determined as 7.41 µM.

With `CCC1([N+](=O)[O-])CN(N=O)C1`, the EC50 is over 200 µM and the IC50 is over 200 µM.

For the molecule `Cc1cc(C)c2c(=N)c3ccccc3n(CCCCCCn3c4ccccc4c(=N)c4c(C)cc(C)nc43)c2n1`, the EC50 was over 2 µM and the IC50 amounted to 0.302 µM.

Regarding `O=C1CC2CCCC23CC2(CCN13)OCCO2` (stereo not given), the outcome was inactive.

For `O=C(NNc1ccnc2cc(Cl)ccc12)/C(=C\c1ccccc1Cl)NC(=O)c1ccccc1`, the EC50 is over 100 µM and the half-maximal inhibitory concentration (IC50) worked out at 56.2 µM.

With `COC(=O)C(Cc1nc2ccccc2[nH]c1=O)C(=O)C(=O)Nc1ccc(F)cc1` (stereo not given), the EC50 is over 91.2 µM and the IC50 stood at 16.2 µM.

On to `Cc1cn(C2CC(COCc3ccccc3)N(CCO[Si](C)(C)C(C)(C)C)O2)c(=O)[nH]c1=O` (stereo not given), for which the EC50 was over 200 µM and the IC50 was found to be 11.5 µM.

For the molecule `COc1ccc2nc(C)cc(NCCCCCCCCCNc3cc(C)nc4ccc(OC)cc34)c2c1`, the EC50 was over 33.1 µM and the IC50 amounted to 0.891 µM.

`O=C(O)CC(NC(=O)C(F)(F)F)C(=O)NC(Cc1ccc(O)cc1)C(=O)O` (stereo not drawn) (Tfa-Asp-Tyr-OH; configuration not given here): the EC50 was over 200 µM and the IC50 is over 200 µM.

On to `COc1ccccc1N1C(=O)C2C3c4ccccc4C(OC(C)=O)(c4ccccc43)C2C1=O` (stereo not given), for which the EC50 was over 200 µM and the half-maximal inhibitory concentration (IC50) is over 200 µM.

On to `CN(C)P(=O)(OP(=O)(N(C)C)N(C)C)N(C)C`, for which the EC50 is over 200 µM and the IC50 is over 200 µM.

`Cc1ccc2c(n1)C(N(C)C)=CC(=O)C2=O`: the outcome was inactive.

On to `CCN(CC)CCNc1ccc(CO)c2oc3ccc(O)cc3c(=O)c12`, for which the EC50 was over 191 µM and the IC50 was determined as 1.32 µM.

In the case of `O=C1CCC2=NCc3c(ccc4ccccc34)N12`, the EC50 is over 398 µM and the IC50 was determined as 347 µM.

Turning to `COC1/C=C/OC2(C)Oc3c(C)c(O)c4c(O)c(c(C=NOC(c5ccccc5)c5ccccc5)c(O)c4c3C2=O)NC(=O)/C(C)=C/C=C/C(C)C(O)C(C)C(O)C(C)C(OC(C)=O)C1C` (stereo not given), the EC50 was over 200 µM and the IC50 was 4.79 µM.

For the molecule `O=C(O)C1CC(O)CN1S(=O)(=O)Cc1ccccc1` (stereo not given), the EC50 was over 200 µM and the IC50 was over 200 µM.

As for `c1ccc(C2N3CCCCC3[C@@H]3c4[nH]c5ccccc5c4CCN23)cc1` (stereo not given in full), the EC50 is over 20.9 µM and the 50% inhibitory concentration (IC50) is over 20.9 µM.

As for `CCCCCCn1c(SCC)c2ccccc2c1-c1nc(F)nc(F)n1`, the EC50 is over 2.75 µM and the IC50 is over 2.75 µM.

With `CCOC(=O)c1c(C)c(N=O)c2ccccn12`, the EC50 is over 200 µM and the IC50 was 5.62 µM.

Take `O=C1/C(=C/c2ccc(Cl)c(Cl)c2)CN(C(=O)CCN2CCOCC2)C/C1=C\c1ccc(Cl)c(Cl)c1`: the EC50 is over 22.9 µM and the IC50 was 0.12 µM.

`CC(C)=CCC1(c2ccccc2)Oc2ccccc2-n2cccc2C1=O` (stereo not given): the EC50 is over 200 µM and the IC50 is 138 µM.

Turning to `C[n+]1c(-c2ccc(/C=N/NC(=O)c3ccc(C(=O)N/N=C/c4ccc(-c5cn6ccccc6[n+]5C)cc4)nc3)cc2)cn2ccccc21`, the half-maximal effective concentration (EC50) is 2.63 µM and the IC50 was 21.9 µM.

Take `COC(=O)C12C3C4C5C3(C#N)C1C5(C(=O)OC)C42C(=O)N(C(C)C)C(C)C` (stereo not given): the EC50 is over 97.7 µM and the 50% inhibitory concentration (IC50) is over 97.7 µM.

`CCc1ccccc1NC(=O)C1=C(C)NC(C)=C(C(=O)Nc2ccccc2CC)C1c1ccccc1Cl`: the EC50 was over 10 µM and the IC50 was over 10 µM.
